Test results: PubChem BioAssay AID248 (DTP/NCI, 2004)
Where “and” joins values, the source holds several entries; their conditions need not be identical. Equal entries are not always repeated. Inconclusive results and toxic doses are left out. Rule as the data show it: active = T/C of 150% or more; inactive = T/C below 125%.

Test system: L1210 leukemia ip in BDF1 mice, survival T/C
Experiment: NCI In Vivo Anticancer Drug Screen. Data for tumor model L1210 Leukemia (intraperitoneal) in B6D2F1 (BDF1) mice
Conditions: endpoint: mean survival time, higher = longer survival
Procedure, shortened: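 Mice bearing the transplanted tumor received compound or vehicle. Survival of the treated group was divided by that of the vehicle-treated control group to give the ratio.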

[1] = dose: 25.0 mg/kg/injection, schedule: Q04DX003 (ip), vehicle: saline with Tween-80
[2] = dose: 100.0 mg/kg/injection, schedule: Q01DX009 (ip), vehicle: saline with Tween-80
[3] = dose: 100.0 mg/kg/injection, schedule: Q04DX003 (ip), vehicle: saline with Tween-80
[4] = dose: 200.0 mg/kg/injection, schedule: Q01DX009 (ip), vehicle: saline with Tween-80
[5] = dose: 200.0 mg/kg/injection, schedule: Q04DX003 (ip), vehicle: saline with Tween-80
[6] = dose: 400.0 mg/kg/injection, schedule: Q01DX009 (ip), vehicle: saline with Tween-80
[7] = dose: 400.0 mg/kg/injection, schedule: Q04DX003 (ip), vehicle: saline with Tween-80
[8] = dose: 200.0 mg/kg/injection, schedule: Q01DX001 (ip), vehicle: saline
[9] = dose: 100.0 mg/kg/injection, schedule: Q01DX009 (ip), vehicle: Klucel (hydroxypropylcellulose) (HPC)
[10] = dose: 100.0 mg/kg/injection, schedule: Q04DX003 (ip), vehicle: Klucel (hydroxypropylcellulose) (HPC)
[11] = dose: 200.0 mg/kg/injection, schedule: Q01DX009 (ip), vehicle: Klucel (hydroxypropylcellulose) (HPC)
[12] = dose: 200.0 mg/kg/injection, schedule: Q04DX003 (ip), vehicle: Klucel (hydroxypropylcellulose) (HPC)
[13] = dose: 400.0 mg/kg/injection, schedule: Q01DX009 (ip), vehicle: Klucel (hydroxypropylcellulose) (HPC)
[14] = dose: 400.0 mg/kg/injection, schedule: Q04DX003 (ip), vehicle: Klucel (hydroxypropylcellulose) (HPC)
[15] = dose: 100.0 mg/kg/injection, schedule: Q01DX001 (ip), vehicle: saline
[16] = dose: 400.0 mg/kg/injection, schedule: Q01DX001 (ip), vehicle: saline

Measured: T/C

ClCCN(CCCl)CCCN1c2ccccc2Sc2ccccc21
inactive: dose: 6.25 mg/kg/injection, schedule: Q01DX009 (ip), vehicle: saline with Tween-80 109 % of control | dose: 12.5 mg/kg/injection, schedule: Q01DX009 (ip), vehicle: saline with Tween-80 115 % of control | dose: 12.5 mg/kg/injection, schedule: Q04DX003 (ip), vehicle: saline with Tween-80 97 % of control | dose: 16.0 mg/kg/injection, schedule: Q04DX003 (ip), vehicle: saline with Tween-80 114 % of control | dose: 16.0 mg/kg/injection, schedule: Q04DX003 (ip), vehicle: saline 100 % of control | [1] 97 % of control | dose: 26.0 mg/kg/injection, schedule: Q04DX003 (ip), vehicle: saline 107 % of control | dose: 35.0 mg/kg/injection, schedule: Q04DX003 (ip), vehicle: saline with Tween-80 90 % of control | dose: 35.0 mg/kg/injection, schedule: Q04DX003 (ip), vehicle: saline 103 % of control | dose: 50.0 mg/kg/injection, schedule: Q04DX003 (ip), vehicle: saline with Tween-80 121 % of control

OC(c1ccccc1)c1ccccc1
inactive: dose: 100.0 mg/kg/injection, schedule: Q04DX003 (ip), vehicle: saline 95 % of control | dose: 200.0 mg/kg/injection, schedule: Q04DX003 (ip), vehicle: saline 100 % of control | dose: 400.0 mg/kg/injection, schedule: Q04DX003 (ip), vehicle: saline 97 % of control

N#CC(C#N)C1c2ccccc2C([N+](=O)[O-])c2ccccc21 (stereo unspecified)
inactive: [2] 103 % of control | [3] 88 % of control | [4] 96 % of control | [5] 93 % of control | [6] 98 % of control | [7] 101 % of control

C=CC1CN2CCC1CC2C(O)c1ccnc2ccc(OC)cc12 (stereo unspecified)
inactive: dose: 27.45 mg/kg/injection, schedule: Q01DX Z (ip), vehicle: other 92 % of control | dose: 54.9 mg/kg/injection, schedule: Q01DX Z (ip), vehicle: other 92 % of control | dose: 75.0 mg/kg/injection, schedule: Q01DX009 (ip), vehicle: saline with Tween-80 92 % of control | dose: 109.8 mg/kg/injection, schedule: Q01DX Z (ip), vehicle: other 94 % of control | [8] 101 % of control

COc1ccc(CCN=Cc2ccc(Cl)cc2)cc1OC
inactive: [9] 104 % of control | [10] 93 % of control | [11] 95 % of control | [12] 96 % of control | [13] 95 % of control | [14] 103 % of control

NP(=O)(OCCCOCc1ccccc1)N(CCCl)CCCl (stereo unspecified)
inactive: dose: 125.0 mg/kg/injection, schedule: Q01DX001 (ip), vehicle: saline 103 % of control | dose: 250.0 mg/kg/injection, schedule: Q01DX001 (ip), vehicle: saline 108 % of control | dose: 500.0 mg/kg/injection, schedule: Q01DX001 (ip), vehicle: saline 100 % of control

O=[N+]([O-])c1cc2c3c(cccc3c1)CC2
inactive: [15] 95 % of control and 97 % of control | dose: 100.0 mg/kg/injection, schedule: Q04DX002 (ip), vehicle: saline 105 % of control | [8] 100 % of control | dose: 200.0 mg/kg/injection, schedule: Q04DX002 (ip), vehicle: saline 100 % of control | [16] 100 % of control and 110 % of control | dose: 400.0 mg/kg/injection, schedule: Q04DX002 (ip), vehicle: saline 101 % of control

CC(=O)OCC1OC(n2cnc3c(N)ncnc32)C(OC(C)=O)C1OC(C)=O (stereo unspecified)
inactive: dose: 50.0 mg/kg/injection, schedule: Q01DX001 (ip), vehicle: saline 100 % of control | [15] 110 % of control | dose: 100.0 mg/kg/injection, schedule: Q01DX005 (ip), vehicle: saline 93 % of control | [8] 94 % of control and 106 % of control | dose: 200.0 mg/kg/injection, schedule: Q01DX005 (ip), vehicle: saline 95 % of control | dose: 200.0 mg/kg/injection, schedule: Q01DX009 (ip), vehicle: saline 104 % of control | [16] 94 % of control | dose: 400.0 mg/kg/injection, schedule: Q01DX009 (ip), vehicle: saline 109 % of control

NS(=O)(=O)Cl
inactive: dose: 100.0 mg/kg/injection, schedule: Q01DX009 (sc), vehicle: olive oil, sesame oil, peanut oil 98 % of control | dose: 100.0 mg/kg/injection, schedule: Q04DX003 (sc), vehicle: olive oil, sesame oil, peanut oil 102 % of control | dose: 200.0 mg/kg/injection, schedule: Q01DX009 (sc), vehicle: olive oil, sesame oil, peanut oil 100 % of control | dose: 200.0 mg/kg/injection, schedule: Q04DX003 (sc), vehicle: olive oil, sesame oil, peanut oil 103 % of control | dose: 400.0 mg/kg/injection, schedule: Q01DX009 (sc), vehicle: olive oil, sesame oil, peanut oil 95 % of control | dose: 400.0 mg/kg/injection, schedule: Q04DX003 (sc), vehicle: olive oil, sesame oil, peanut oil 108 % of control

C[N+](C)(C)C1(Cc2ccc(Br)cc2)c2ccccc2-c2ccccc21
inactive: [1] 88 % of control

O=C(NCc1cnccn1)OCC(Cl)(Cl)Cl
inactive: [2] 97 % of control | [4] 106 % of control | [6] 103 % of control

OCCSSSCCO
inactive: dose: 75.0 mg/kg/injection, schedule: Q01DX001 (ip), vehicle: other 105 % of control | dose: 150.0 mg/kg/injection, schedule: Q01DX001 (ip), vehicle: other 115 % of control

CCOC(CNC(=O)OCc1ccccc1)OCC
inactive: dose: 50.0 mg/kg/injection, schedule: Q01DX009 (ip), vehicle: Klucel (hydroxypropylcellulose) (HPC) 98 % of control | [9] 96 % of control and 106 % of control | [10] 96 % of control | dose: 150.0 mg/kg/injection, schedule: Q01DX009 (ip), vehicle: Klucel (hydroxypropylcellulose) (HPC) 102 % of control | [11] 98 % of control | [12] 105 % of control | [13] 101 % of control | [14] 97 % of control

O=c1ccccn1C/C(=N\O)c1ccccc1
inactive: [9] 98 % of control | [10] 107 % of control | [11] 100 % of control | [12] 98 % of control | [13] 107 % of control | [14] 100 % of control

O=C(O)c1ccnc(Cl)c1
inactive: [3] 101 % of control | [5] 102 % of control | [7] 101 % of control

Cl/C=C\C[N+]12CN3CN(CN(C3)C1)C2
inactive: dose: 25.0 mg/kg/injection, schedule: Q04DX003 (ip), vehicle: saline 100 % of control | dose: 50.0 mg/kg/injection, schedule: Q04DX003 (ip), vehicle: saline 94 % of control

COC(=O)CC1OCC=C2CN3CCC45C6=CC(=O)C(=O)C([N+](=O)[O-])=C6NC4C1C2CC35 (stereo unspecified)
inactive: dose: 5.0 mg/kg/injection, schedule: Q01DX001 (ip), vehicle: saline 97 % of control | dose: 10.0 mg/kg/injection, schedule: Q01DX001 (ip), vehicle: saline 97 % of control

NCCC(=O)NO
inactive: [15] 98 % of control | [8] 88 % of control | [16] 106 % of control

CCCCOC(=O)c1ccc(NC(=O)Nc2cc([N+](=O)[O-])ccc2F)cc1
inactive: dose: 100.0 mg/kg/injection, schedule: Q04DX002 (ip), vehicle: Klucel (hydroxypropylcellulose) (HPC) 93 % of control | dose: 200.0 mg/kg/injection, schedule: Q04DX002 (ip), vehicle: Klucel (hydroxypropylcellulose) (HPC) 104 % of control | dose: 400.0 mg/kg/injection, schedule: Q04DX002 (ip), vehicle: Klucel (hydroxypropylcellulose) (HPC) 93 % of control
